Legend:
Type in all cases: cell-based
[1] = tested on: Corynebacterium Pseudodiphteriticum; test: Alanyl-peptidase detection on agar medium (Example 13); settings: 25 mg/l
Experimental: (§1) The detection media were prepared by mixing 3.6 g of biogelytone (bioMérieux), 2.16 g of meat extract (bioMérieux), 1.26 g of malt extract (bioMérieux), 5.76 g of NaCl (Merck) and 10.8 g of agar (bioMérieux).
(§2) 720 ml of osmosed water were added to the powder, and the mixture was then melted in a waterbath at […]. The product was separated into two flasks, each of 360 ml. Autoclaving was carried out at 121° C. for 15 min and the product was cooled to […]. in a waterbath.
(§3) L-Alanyl-7-amino-4-methylcoumarin (Ala-AMC, Bachem) was then added to the first flask as a control, at the final concentration of 50 mg/l, and L-alanyl-9-aminobenzo[a]phenoxazin-5-one (Ala-ABP, substrate of the invention obtained in Example 2, in which the amino acid is L-alanine), was then added to the second flask at the final concentration of 25 mg/l.
(§4) The size of the colonies, their coloration and also the intensity of this coloration were noted.

Pseudomonas aeruginosa [2] = test: as above; settings: 25 mg/l
Experimental: as §1, §2, §3, §4

Bacillus subtilis = test: as above; settings: 25 mg/l
Experimental: as §1, §2, §3, §4

Streptococcus pyogenes = test: as above; settings: 25 mg/l
Experimental: as §1, §2, §3, §4

Candida albicans [3] = test: as above; settings: 25 mg/l
Experimental: as §1, §2, §3, §4

[4] = tested on: Staphylococcus epidermidis; test: as above; settings: 25 mg/l
Experimental: as §1, §2, §3, §4

Enterobacter cloacae = test: as above; settings: 25 mg/l
Experimental: as §1, §2, §3, §4

Saccharomyces cerevisiae = test: as above; settings: 25 mg/l
Experimental: as §1, §2, §3, §4

Klebsiella pneumoniae = test: as above; settings: 25 mg/l
Experimental: as §1, §2, §3, §4

Candida krusei = test: as above; settings: 25 mg/l
Experimental: as §1, §2, §3, §4

Staphylococcus aureus = test: as above; settings: 25 mg/l
Experimental: as §1, §2, §3, §4

Enterococcus faecium = test: as above; settings: 25 mg/l
Experimental: as §1, §2, §3, §4

Candida glabrata = test: as above; settings: 25 mg/l
Experimental: as §1, §2, §3, §4

Streptococcus agalactiae = test: as above; settings: 25 mg/l
Experimental: as §1, §2, §3, §4

Pseudomonas aeruginosa [5] = test: Leucine-peptidase detection on agar medium (Example 11); for color of the colony: key: B corresponds to fluorescent blue; R corresponds to pink
Experimental: (§5) The detection medium was prepared by mixing 1.4 g of biogelytone (bioMérieux), 0.84 g of meat extract (bioMérieux), 2.24 g of NaCl (Merck), 280 μl of a solution of IPTG (isopropylthio-β-D-galactopyranoside, BIOSYNTH) in water (concentration 10 g/l) and 4.2 g of European agar (bioMérieux).
(§6) The substrate of the invention obtained in Example 2, in which the amino acid is leucine (leucine-9-aminobenzo[a]phenoxazin-5-one or Leu-ABP), or else a substrate of the prior art, which is leucine-aminomethylcoumarin (Leu-AMC, BACHEM), was then added in the following way: 280 ml of osmosed water were added to the medium, and the mixture was melted in a waterbath at 100° C. The mixture was autoclaved for 15 min at 121° C. and cooled to 50° C. in a waterbath.
(§7) The medium was then poured into Petri dishes.
(§8) The coloration of these colonies, the diffusion, and also the intensity of this coloration were noted.
(§9) The results were expressed as intensity of coloration using an arbitrary scale ranging from 0 to 4 as a basis and also as diffusion also using an arbitrary scale ranging from 0 to 4 as a basis.

Candida albicans [6] = test: as above
Experimental: as §5, §6, §7, §8, §9

Enterococcus faecalis = test: as above
Experimental: as §5, §6, §7, §8, §9

## L-alanyl-9-aminobenzo[a]phenoxazin-5-one [Ala-ABP]
[1]; 24 h
  growth diameter: 0 mm
[1]; 48 h
  growth diameter: 0 mm
Pseudomonas aeruginosa [2]; 24 h
  color of the colony: R
  growth diameter: 0.3 mm
  intensity of coloration, scale 0 to 4: 1.7
Pseudomonas aeruginosa [2]; 48 h
  color of the colony: R
  growth diameter: 0.5 mm
  intensity of coloration, scale 0 to 4: 3
Bacillus subtilis; 24 h
  growth diameter: 0.1 mm
Bacillus subtilis; 48 h
  growth diameter: 0.5 mm
Streptococcus pyogenes; 24 h
  growth diameter: 0.1 mm
Streptococcus pyogenes; 48 h
  growth diameter: 0.2 mm
Candida albicans [3]; 24 h
  growth diameter: 0.3 mm
Candida albicans [3]; 48 h
  color of the colony: R
  growth diameter: 0.5 mm
  intensity of coloration, scale 0 to 4: 2
[4]; 24 h
  growth diameter: 0.1 mm
[4]; 48 h
  growth diameter: 0.1 mm
Enterobacter cloacae; 24 h
  color of the colony: R
  growth diameter: 0.7 mm
  intensity of coloration, scale 0 to 4: 1.5
Enterobacter cloacae; 48 h
  color of the colony: R
  growth diameter: 0.7 mm
  intensity of coloration, scale 0 to 4: 2
Saccharomyces cerevisiae; 24 h
  growth diameter: 0 mm
Saccharomyces cerevisiae; 48 h
  growth diameter: 0.2 mm
Klebsiella pneumoniae; 24 h
  color of the colony: R
  growth diameter: 1 mm
  intensity of coloration, scale 0 to 4: 3
Klebsiella pneumoniae; 48 h
  color of the colony: R
  growth diameter: 1.5 mm
  intensity of coloration, scale 0 to 4: 3
Candida krusei; 24 h
  growth diameter: 0.5 mm
Candida krusei; 48 h
  growth diameter: 1 mm
Staphylococcus aureus; 24 h
  growth diameter: 0.1 mm
Staphylococcus aureus; 48 h
  growth diameter: 0.3 mm
Enterococcus faecium; 24 h
  growth diameter: 0.2 mm
Enterococcus faecium; 48 h
  growth diameter: 0.3 mm
Candida glabrata; 24 h
  growth diameter: 0.1 mm
Candida glabrata; 48 h
  growth diameter: 0.3 mm
Streptococcus agalactiae; 24 h
  growth diameter: 0.1 mm
Streptococcus agalactiae; 48 h
  growth diameter: 0.2 mm

## leucine-9-aminobenzo[a]phenoxazin-5-one [Leu-ABP]
Pseudomonas aeruginosa [5]; 24 h, 25 mg/l
  growth diameter: 2 mm
Pseudomonas aeruginosa [5]; 24 h, 50 mg/l
  color of the colony: R
  growth diameter: 2 mm
  intensity of coloration, scale 0 to 4: 0.75
Pseudomonas aeruginosa [5]; 24 h, 100 mg/l
  color of the colony: R
  growth diameter: 2 mm
  intensity of coloration, scale 0 to 4: 0.75
Pseudomonas aeruginosa [5]; 24 h, 200 mg/l
  color of the colony: R
  growth diameter: 2 mm
  intensity of coloration, scale 0 to 4: 0.5
Pseudomonas aeruginosa [5]; 24 h, 400 mg/l
  color of the colony: R
  growth diameter: 2 mm
  intensity of coloration, scale 0 to 4: 0.5
Pseudomonas aeruginosa [5]; 48 h, 25 mg/l
  color of the colony: R
  growth diameter: 2 mm
  intensity of coloration, scale 0 to 4: 1
Pseudomonas aeruginosa [5]; 48 h, 50 mg/l
  color of the colony: R
  growth diameter: 2 mm
  intensity of coloration, scale 0 to 4: 2.5
Pseudomonas aeruginosa [5]; 48 h, 100 mg/l
  color of the colony: R
  growth diameter: 2 mm
  intensity of coloration, scale 0 to 4: 2.5
Pseudomonas aeruginosa [5]; 48 h, 200 mg/l
  color of the colony: R
  growth diameter: 2 mm
  intensity of coloration, scale 0 to 4: 2
Pseudomonas aeruginosa [5]; 48 h, 400 mg/l
  color of the colony: R
  growth diameter: 2 mm
  intensity of coloration, scale 0 to 4: 0.5
Candida albicans [6]; 24 h, 25 mg/l
  growth diameter: 0.3 mm
Candida albicans [6]; 48 h, 25 mg/l
  color of the colony: R
  growth diameter: 0.5 mm
  intensity of coloration, scale 0 to 4: 0.25
Candida albicans [6]; 48 h, 50 mg/l
  growth diameter: 0.3 mm
Enterococcus faecalis; 24 h, 25 mg/l
  color of the colony: R
  growth diameter: 0.3 mm
  intensity of coloration, scale 0 to 4: 0.0
Enterococcus faecalis; 24 h, 50 mg/l
  color of the colony: R
  growth diameter: 0.3 mm
  intensity of coloration, scale 0 to 4: 0.0
Enterococcus faecalis; 24 h, 100 mg/l
  growth diameter: 0.3 mm
Enterococcus faecalis; 24 h, 200 mg/l
  growth diameter: 0.3 mm
Enterococcus faecalis; 24 h, 400 mg/l
  growth diameter: 0.3 mm
Enterococcus faecalis; 48 h, 25 mg/l
  color of the colony: R
  growth diameter: 0.3 mm
  intensity of coloration, scale 0 to 4: 0.0
Enterococcus faecalis; 48 h, 50 mg/l
  color of the colony: R
  growth diameter: 0.3 mm
  intensity of coloration, scale 0 to 4: 0.0
Enterococcus faecalis; 48 h, 100 mg/l
  color of the colony: R
  growth diameter: 0.3 mm
  intensity of coloration, scale 0 to 4: 0.0
Enterococcus faecalis; 48 h, 200 mg/l
  growth diameter: 0.3 mm
Enterococcus faecalis; 48 h, 400 mg/l
  color of the colony: R
  growth diameter: 0.3 mm
  intensity of coloration, scale 0 to 4: 0.5
